These results are taken from patent US20040136931A1, “Photoprotective cosmetic compositions comprising 3-(2-azacycloalkylidene)-1,3-dihydroindol-2-one compounds” (SOCIETE L'OREAL S.A., priority 2002, published 2004).

Data set [1] in a line: Sun screening properties (UV absorption). In kind it is physicochemical. To be noted: 92.8% acetonitrile+7.2% DMSO. An excerpt: This compound has the following sun screening properties:
λmax=350 nm (92.8% acetonitrile+7.2% DMSO)

The nature of data set [2]: Photostability: irradiation of an oily film in a solar simulator. The settings on record: one hour of irradiation in a solar simulator (UVA=18.6 mW/cm^2, UVB=0.6 mW/cm^2); oily film containing 0.5% of the compound. It counts as physicochemical.
The nature of data set [3]: RPE (Resonance Paramagnetic Electronic) study of pro-oxidizing activity under irradiation. The settings on record: formulated medium, irradiation under the same conditions as the photostability test (solar simulator).

As for `CCN1C(=O)/C(=C2/CCCN2)c2ccccc21` [Compound 2, 1-Ethyl-3-pyrrolidin-2-ylidine-1,3-dihydroindol-2-one], the λmax in data set [1] is given as 326 nm. Besides, the εmax in data set [1] (at λmax) is 22600 1.mol^−1.cm^−1.
Taken in the same sequence, the figures for `O=C1Nc2ccccc2/C1=C1\CCCN1` [Compound 3, 3-Pyrrolidin-2-ylidene-1,3-dihydroindol-2-one] were 328 nm and 8100 1.mol^−1.cm^−1.
Turning to `CCN1C(=O)/C(=C2/CCCN2C)c2ccccc21` [Compound 1, 1-Ethyl-3-(1-methylpyrrolidin-2-ylidene)-1,3-dihydroindol-2-one], the “residual level of the compound after irradiation” value in data set [2] was 92%. In data set [3], the pro-oxidizing activity result was “does not manifest any pro-oxidizing activity”. In addition, the λmax in data set [1] is 350 nm. In data set [1] (at λmax), the E1% is recorded as 722 and the εmax is 17501 1.mol^−1.cm^−1.
